Measurements: patent US4734280A, “Treatment or prevention of PAF Acether-induced maladies” (priority 1984, dated 1988)
Like-named read-outs stand apart in the source and are kept apart here.

Legend:
[1] = tested on: Hartley guinea-pig; assay: PAF Acether-induced bronchoconstriction in the anesthetized guinea-pig; assay type: in vivo; settings: 1 mg/kg IV
Description: Method: (For details, see B. B. VARGAFTIG, J. LEFORT, F. WAL, M. CHIGNARD and M. C. MEDEIROS-Non-steroidal anti-inflammatory drugs of combined with anti-histamine and anti-serotonin agents interfere with the bronchial and platelet effects of PAF Acether-Enr. J. Pharm. (1982) 82 121-130). Male Hartley guinea-pig (400-500 g) were anesthetized with urethane 2 g/kg Ip., tracheotomised and ventilated by mean of a respiratory pump: 70-80 strokes mn, stroke volume 5 ml, a pneumothorax was done to abolish spontaneous respiration. The right jugular vein was catherized and used for injections.
The initial resistance was kept constant at 10 cm H2 O pressure according to the method of Konzett and Rossler and the overflowed airway was measured with a bronchospasm transducer UGO BASILE connected to a UGO BASILE recorder "GEMINI". Bronchial sensitivity of the animal was checked with acetylcholine (10-40 ng kg^-1 IV) and after constant response was obtained, there were injected, IV, first the propylene glycol and, five minutes later, 60 ng/kg of PAF Acether, which gave the control bronchoconstriction expressed as % of maximal bronchoconstriction given by clamping off the trachea. 40 minutes later, the tested compounds were administered by IV injection and, 5 minutes later, 60 ng/kg of PAF Acether by the same route. This experimentation was conducted on three batches of each 10 animals: first batch for Ginkgolide A, second one for Ginkgolide B and last one for Ginkgolide C, all at the 1 mg/kg dose. The figures of the following table are the average values for the 10 animals of each batch.

[2] = tested on: human platelets; assay: Ex vivo PAF Acether-induced PA in man after IV administration; settings: IV 25 mg, PAF Acether 100 nM
Description: […] DMSO).
The same protocol described hereinabove for rabbit was used in man with only one dose of each Ginkgolide (IV 25 mg) and two blood takes (at 0.5 h and 1 h).

[3] = target: T1, PAF-Acether receptor (Oryctolagus cuniculus, UniProt G1TEI7); assay: Competition with 3H-PAF Acether binding, rabbit membrane platelet preparation
T1 construct: using a rabbit membrane platelet preparation; from tissue; host or cells: rabbit platelets (membrane preparation)
Description: The competition of the alternative binding of either ^3 H-PAF Acether or one of the Ginkgolides was evidenced by radioactive determinations using a rabbit membrane platelet preparation. (100% control=^3 H-PAF Acether alone).

[4] = tested on: thermal-injured patients; assay: Preliminary clinical trial in thermal-injured patients (open study); assay type: in vivo, human; settings: perfusion 5 mg per hour for six hours then 2 mg per hour for 48 hours; 13 patients, burnt surface area >50%
Description: An open study has been performed on 13 thermal-injured patients (total burnt surface area >50%) treated by Ginkgolide B.
The Ginkgolide B was administered in a perfusion (5 mg per hour for six hours and then 2 mg per hour for the following 48 hours).

[5] = tested on: guinea-pig lung parenchymal strip; assay: PAF Acether-induced contraction of superfused lung parenchymal strip
[6] = tested on: rabbit platelets; assay: Ex vivo PAF Acether-induced rabbit PA after per os or IV administration; assay type: in vivo; settings: for activity at 0.5 mg/kg / activity at 1 mg/kg / activity at 2 mg/kg: Oryctolagus cuniculus, Platelet, iv, read-out: PAF Acether-induced rabbit PA (% of control); for activity at 0.5 mg/kg: IV 0.5 mg/kg; for activity at 1 mg/kg: IV 1 mg/kg; for activity at 2 mg/kg: IV 2 mg/kg
Description: Drugs were administered per os (2,5 and 10 mg/kg) or by IV route (0.5, 1, 2 mg/kg) and blood samples were taken at different times to test platelet aggregation with PAF-Acether ([…]) (see following table wherein the figures appearing are the ratio to the control with the solvent used, i.e. DMSO).

[7] = tested on: rabbit plasma-rich platelets (PRP); assay: Aggregation induced by other known aggregants (ADP, thrombine, calcium ionophore A 23187, collagen, adrenaline); assay type: cell-based; settings: calcium ionophore A 23187, collagen and adrenaline
[8] = 0.5 h, PAF Acether 2.5 nM, 0.5 h
[9] = 0.5 h, PAF Acether 5.0 nM, 0.5 h

T1 sequence (G1TEI7 1-342): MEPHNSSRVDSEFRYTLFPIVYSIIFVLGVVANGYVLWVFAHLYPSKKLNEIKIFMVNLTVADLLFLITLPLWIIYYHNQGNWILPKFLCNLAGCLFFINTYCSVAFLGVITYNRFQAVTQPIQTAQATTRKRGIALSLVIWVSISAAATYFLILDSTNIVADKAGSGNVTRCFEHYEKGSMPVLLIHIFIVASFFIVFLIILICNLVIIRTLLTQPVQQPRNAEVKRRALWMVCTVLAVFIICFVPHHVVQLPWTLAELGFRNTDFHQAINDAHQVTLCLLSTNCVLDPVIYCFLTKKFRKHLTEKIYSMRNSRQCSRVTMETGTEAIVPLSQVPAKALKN

Structure (SMILES): CC1C(=O)OC2C(O)C34C5CC(C(C)(C)C)C36C(OC(=O)C6O)OC4(C(=O)O5)C12O (stereo not drawn) [Ginkgolide B]
- % of bronchoconstriction ([1]; 5 minutes before PAF Acether 60 ng/kg IV, % of maximal bronchoconstriction, average of 10 animals): 6.2%
- % of inhibition (bronchoconstriction) ([1]; vs solvent in the same batch): 92.3%
- % of aggregation with respect to control ([2]; blood take at 0.5 h): 0%
- % of aggregation with respect to control ([2]; blood take at 1.0 h): 3.4%
- IC50 ([3]; rabbit membrane platelet preparation): 0.575 µM
- inhibition at 1 µM ([3]; read-out: reduction of 3H-PAF Acether binding): 94%
- clinical outcome in thermal-injured patients [4]: faster recovery (decreased oedema, decreased plasma leakage and improvement of clinical outcome)
- inhibition at 30 µg/mL ([5]; Cavia porcellus, read-out: change of PAF Acether (3 ng)-induced contraction): 78.8%
- Contraction induced by PAF Acether (3 ng) (Arbitrary Units) ([5]; preventive superfusion 30 μg/ml, average of 10 determinations): 8.05 ± 2.16 Arbitrary Units
- activity at 0.5 mg/kg [6, 8]: 0%
- activity at 0.5 mg/kg [6, 9]: 0%
- activity at 1 mg/kg [6, 8]: 0%
- activity at 1 mg/kg [6, 9]: 0%
- activity at 2 mg/kg [6, 8]: 0%
- activity at 2 mg/kg [6, 9]: 0%
- activity at 0.5 mg/kg ([6]; 1 h, PAF Acether 2.5 nM, 1 h): 7.4%
- activity at 0.5 mg/kg ([6]; 1 h, PAF Acether 5.0 nM, 1 h): 9.4%
- activity at 1 mg/kg ([6]; 1 h, PAF Acether 2.5 nM, 1 h): 0%
- activity at 1 mg/kg ([6]; 1 h, PAF Acether 5.0 nM, 1 h): 1.1%
- activity at 2 mg/kg ([6]; 1 h, PAF Acether 2.5 nM, 1 h): 0%
- activity at 2 mg/kg ([6]; 1 h, PAF Acether 5.0 nM, 1 h): 0%
- activity at 0.5 mg/kg ([6]; 2 h, PAF Acether 2.5 nM, 2 h): 11.2%
- activity at 0.5 mg/kg ([6]; 2 h, PAF Acether 5.0 nM, 2 h): 14.5%
- activity at 1 mg/kg ([6]; 2 h, PAF Acether 2.5 nM, 2 h): 4.1%
- activity at 1 mg/kg ([6]; 2 h, PAF Acether 5.0 nM, 2 h): 7.2%
- activity at 2 mg/kg ([6]; 2 h, PAF Acether 2.5 nM, 2 h): 0%
- activity at 2 mg/kg ([6]; 2 h, PAF Acether 5.0 nM, 2 h): 0%
- PAF Acether-induced rabbit PA (% of control) ([6]; per os 2 mg/kg, PAF Acether 2.5 nM, 0.5 h): 23%
- PAF Acether-induced rabbit PA (% of control) ([6]; per os 2 mg/kg, PAF Acether 2.5 nM, 1 h): 37%
- PAF Acether-induced rabbit PA (% of control) ([6]; per os 2 mg/kg, PAF Acether 2.5 nM, 2 h): 54%
- PAF Acether-induced rabbit PA (% of control) ([6]; per os 2 mg/kg, PAF Acether 5.0 nM, 0.5 h): 34.5%
- PAF Acether-induced rabbit PA (% of control) ([6]; per os 2 mg/kg, PAF Acether 5.0 nM, 1 h): 47.8%
- PAF Acether-induced rabbit PA (% of control) ([6]; per os 2 mg/kg, PAF Acether 5.0 nM, 2 h): 71.2%
- PAF Acether-induced rabbit PA (% of control) ([6]; per os 5 mg/kg, PAF Acether 2.5 nM, 1 h): 7%
- PAF Acether-induced rabbit PA (% of control) ([6]; per os 5 mg/kg, PAF Acether 2.5 nM, 2 h): 10%
- PAF Acether-induced rabbit PA (% of control) ([6]; per os 5 mg/kg, PAF Acether 5.0 nM, 0.5 h): 6%
- PAF Acether-induced rabbit PA (% of control) ([6]; per os 5 mg/kg, PAF Acether 5.0 nM, 1 h): 11.4%
- PAF Acether-induced rabbit PA (% of control) ([6]; per os 5 mg/kg, PAF Acether 5.0 nM, 2 h): 27.1%
- effect against aggregation induced by other known aggregants [7]: totally ineffective
